Converted amounts (≈) assume the structure as drawn. Where two headings read alike, the source gives them in different places.
Tests used:
[1] = system: Methicillin-resistant Staphycoccus epidermidis (MRSE); experiment: antibacterial activity in vitro, agar dilution method; format: cell-based; details: Staphylococcus epidermidis
Source text: (§1) The antibacterial spectrum and in vitro antibacterial activity of the compound of the present invention
(§2) Experimental method: the agar dilution method, with reference to Clinical And Laboratory Standards Institute. Methods for Dilution Antimicrobial Susceptibility Tests for Bacteria That Grow Aerobically; Approved Standard-Seventh Edition. CLSI Document M7-A7. Vol 26, no. 2, Wayne, Pa.: Clinical and Laboratory Standards Institute, 2006.
(§3) Wherein MIC represents the minimum inhibitory concentration, MIC90 represents the 90% inhibitory concentration.

[2] = system: Acinetobacter baumannii; experiment: as above; format: cell-based
Source text: as §1, §2, §3

[3] = system: Klebsiella oxytoca; experiment: as above; format: cell-based; details: Table 3
Source text: as §1, §2, §3

[4] = system: Klebsiella pneumoniae; experiment: as above; format: cell-based
Source text: as §1, §2, §3

[5] = system: Methicillin-resistant Staphylococcus aureus (MRSA); experiment: as above; format: cell-based
Source text: as §1, §2, §3

[6] = system: Escherichia coli; experiment: as above; format: cell-based
Source text: as §1, §2, §3

[7] = system: Acinetobacter calcoaceticus; experiment: as above; format: cell-based; details: Table 4
Source text: as §1, §2, §3

[8] = system: Streptococus agalactiae; experiment: as above; format: cell-based; details: Table 4
Source text: as §1, §2, §3

[9] = system: Enterococcus faecalis; experiment: as above; format: cell-based; details: Table 4
Source text: as §1, §2, §3

[10] = system: Streptococcus pyogenes; experiment: as above; format: cell-based; details: Table 2
Source text: as §1, §2, §3

[11] = in vivo; design: species or system male SD rats; details: male, SD, rat, 5 mg/kg
Protocol: Test animals: male SD rats, weighing 180-280 g, purchased from Beijing Vital River Laboratory Animal Technology Co., Ltd.; animal Certificate of Conformity: SCXK (Beijing) 2006-0009. Six rats were tested for each compound. the compounds of the present invention, prepared in accordance with the methods of above Examples, dissolved in physiological saline. tigecycline, dissolved in physiological saline. Administration of the compounds of the present invention: intravenous bolus injection (iv), dose: 5 mg/kg, administrating volume: 5 mL/kg; gavage (po), dose: 5 mg/kg, administrating volume: 5 mL/kg. Administration of tigecycline: gavage (po), dose: 10 mg/kg, administrating volume: 5 mL/kg. Prior to administration help but water fasting for 16 hours, 4 hours after administration to food. Compound 9: iv blood sampling time point: denoted by 0 min before administration, 5 min, 15 min, 30 min, 1 […] after administration; po blood sampling time point: denoted by 0 min before administration, 5 min, 15 min, 30 min, 1 […] after administration; Compound 20: iv blood sampling time point: 5 min, 15 min, 30 min, 1 […] after administration; po blood sampling time point: 10 min, 30 min, 1 […] after administration; Compound 23: iv blood sampling time point: denoted by 0 min before administration, 5 min, 15 min, 30 min, 1 […] after administration; po blood sampling time point: denoted by 0 min before administration, 5 min, 15 min, 30 min, 1 […] after administration; Tigecycline: iv blood sampling time point: 5 min, 15 min, 30 min, 1 h, 2 h, 4 h, 6 h, 8 h after administration; po blood sampling time point: 10 min, 30 min, 1 […] after administration. Each time point is taken around 100 μl whole blood and placed in a heparinized tube, centrifugated at 8000 rpm/min at 4° C. for 6 minutes in a low-temperature high-speed centrifuge to separate plasma, the resulting plasma was frozen at -80° C. refrigerator. Plasma samples analysis: 20 μl of plasma was taken and added 200 μl of internal standard solution, subjected to vortex for 3 minutes, then to centrifugation at 12,000 rpm/min for 5 minutes. 100 μl of supernatant was taken and analyzed using LC-MS/MS. Formula Absolute Bioavailability F%=[AUC](po)×Dose(iv)/[AUC](iv)×Dose(po)

[12] = Table 3, agar dilution, read-out: antibacterial activity MIC, Acinetobacter baumannii
[13] = Table 4, agar dilution, read-out: antibacterial activity MIC, Acinetobacter baumannii

Row | SMILES | MIC ([1]; Table 3) [µg/mL] | MIC [2, 12] [µg/mL] | MIC [3] [µg/mL] | MIC ([4]; Table 3) [µg/mL] | MIC ([5]; Table 3, agar dilution) [µg/mL] | MIC ([6]; Table 3) [µg/mL] | MIC [2, 13] [µg/mL] | MIC [7] [µg/mL] | MIC ([4]; Table 4) [µg/mL] | MIC ([5]; Table 4, agar dilution) [µg/mL] | MIC ([6]; Table 4) [µg/mL] | MIC [8] [µg/mL] | MIC [9] [µg/mL] | also measured
1 | CN(C)c1cc(CN2CC3(C2)CC(F)(F)C3)c(O)c2c1C[C@H]1C[C@H]3[C@H](N(C)C)C(O)=C(C(N)=O)C(=O)[C@@]3(O)C(O)=C1C2=O [Compound 16, (4S,4aS,5aR,12aS)-9-((6,6-difluoro-2-azaspiro[3.3]heptan-2-yl)methyl)-4,7-bis(dimethylamino)-3,10,12,12a-tetrahydroxy-1,1′-dioxo-1,4,4a,5,5a,6,11,12a-octahydrotetracene-2-carboxamide] | 0.5 (≈ 0.83 µM) | 1 (≈ 1.66 µM) | 1 (≈ 1.66 µM) | 1 (≈ 1.66 µM) | 0.5 (≈ 0.83 µM) | 1 (≈ 1.66 µM) | – | – | – | – | – | – | – | –
2 | CN(C)c1cc(CN2CC3CCCCC3C2)c(O)c2c1C[C@H]1C[C@H]3[C@H](N(C)C)C(O)=C(C(N)=O)C(=O)[C@@]3(O)C(O)=C1C2=O (stereo partly drawn) [Compound 29, (4S,4aS,5aR,12aS)-9-((1H-isoindol-2(3H,3aH,4H,5H,6H,7H,7aH)-yl)methyl)-4,7-bis(dimethylamino)-3,10,12,12a-tetrahydroxy-1,11-dioxo-1,4,4a,5,5a,6,11,12a-octahydrotetracene-2-carboxamide] | – | – | – | – | – | – | 2 (≈ 3.36 µM) | 0.25 (≈ 0.42 µM) | 4 (≈ 6.73 µM) | 1 (≈ 1.68 µM) | 1 (≈ 1.68 µM) | 0.25 (≈ 0.42 µM) | 0.125 (≈ 0.21 µM) | –
3 | CN(C)c1cc(CN2CC3CC(C3)C2)c(O)c2c1C[C@H]1C[C@H]3[C@H](N(C)C)C(O)=C(C(N)=O)C(=O)[C@@]3(O)C(O)=C1C2=O [Compound 24, (4S,4aS,5aR,12aS)-9-(3-azabicyclo[3.1.1]heptan-3-ylmethyl)-4,7-bis(dimethylamino)-3,10,12,12a-tetrahydroxy-1,1′-dioxo-1,4,4a,5,5a,6,11,12a-octahydrotetracene-2-carboxamide] | – | – | – | – | – | – | 1 (≈ 1.76 µM) | 0.25 (≈ 0.441 µM) | 2 (≈ 3.53 µM) | 0.5 (≈ 0.882 µM) | 1 (≈ 1.76 µM) | 0.125 (≈ 0.221 µM) | 0.25 (≈ 0.441 µM) | –
4 | CN(C)c1cc(CNCC2CC(F)(F)C2)c(O)c2c1C[C@H]1C[C@H]3[C@H](N(C)C)C(O)=C(C(N)=O)C(=O)[C@@]3(O)C(O)=C1C2=O [Compound 10, (4S,4aS,5aR,12aS)-9-(((3,3-difluorocyclobutyl)methylamino)methyl)-4,7-bis(dimethylamino)-3,10,12,12a-tetrahydroxy-1,11-dioxo-1,4,4a,5,5a,6,11,12a-octahydrotetracene-2-carboxamide] | – | – | – | – | – | – | – | – | – | – | – | – | – | MIC ([1]; Table 2): 0.5 µg/mL (≈ 0.847 µM); MIC ([2]; Table 2, agar dilution, read-out: antibacterial activity MIC, Acinetbacter baumannii): 4 µg/mL (≈ 6.77 µM); MIC [10]: 0.125 µg/mL (≈ 0.212 µM); MIC ([4]; Table 2): 2 µg/mL (≈ 3.39 µM); MIC ([5]; Table 2, agar dilution): 1 µg/mL (≈ 1.69 µM); MIC ([6]; Table 2): 1 µg/mL (≈ 1.69 µM)
5 | CN(C)c1cc(CN2CC3CCCC3C2)c(O)c2c1C[C@H]1C[C@H]3[C@H](N(C)C)C(O)=C(C(N)=O)C(=O)[C@@]3(O)C(O)=C1C2=O (stereo partly drawn) [Compound 28, (4S,4aS,5aR,12aS)-4,7-bis(dimethylamino)-9-((hexahydrocyclopenta[c]pyrrol-2(1H)-yl)methyl)-3,10,12,12a-tetrahydroxy-1,1′-dioxo-1,4,4a,5,5a,6,11,12a-octahydrotetracene-2-carboxamide] | – | – | – | – | – | – | 1 (≈ 1.72 µM) | 0.125 (≈ 0.215 µM) | 2 (≈ 3.44 µM) | 0.5 (≈ 0.861 µM) | 1 (≈ 1.72 µM) | 0.125 (≈ 0.215 µM) | 0.06 (≈ 0.103 µM) | –
6 | CN(C)c1cc(CN2CC(F)C2)c(O)c2c1C[C@H]1C[C@H]3[C@H](N(C)C)C(O)=C(C(N)=O)C(=O)[C@@]3(O)C(O)=C1C2=O [Compound 19, (4S,4aS,5aR,12aS)-4,7-bis(dimethylamino)-9-((3-fluoroazetidin-1-yl)methyl)-3,10,12,12a-tetrahydroxy-1,11-dioxo-1,4,4a,5,5a,6,11,12a-octahydrotetracene-2-carboxamide] | 0.5 (≈ 0.918 µM) | 0.25 (≈ 0.459 µM) | 0.25 (≈ 0.459 µM) | 1 (≈ 1.84 µM) | 0.5 (≈ 0.918 µM) | 1 (≈ 1.84 µM) | – | – | – | – | – | – | – | –
7 | CN(C)c1cc(CN2CCC3(CCCC3)CC2)c(O)c2c1CC1CC3[C@H](N(C)C)C(O)=C(C(N)=O)C(=O)[C@@]3(O)C(O)=C1C2=O (stereo partly drawn) [Compound d, reference compound] | 2 (≈ 3.29 µM) | 4 (≈ 6.57 µM) | 8 (≈ 13.1 µM) | 8 (≈ 13.1 µM) | 1 (≈ 1.64 µM) | 2 (≈ 3.29 µM) | – | – | – | – | – | – | – | –
8 | CN(C)c1cc(CN2CCC3CCCCC3C2)c(O)c2c1CC1CC3[C@H](N(C)C)C(O)=C(C(N)=O)C(=O)[C@@]3(O)C(O)=C1C2=O (stereo partly drawn) [Compound c, reference compound] | – | – | – | – | – | – | 4 (≈ 6.57 µM) | 0.5 (≈ 0.821 µM) | 16 (≈ 26.3 µM) | 1 (≈ 1.64 µM) | 4 (≈ 6.57 µM) | 0.25 (≈ 0.411 µM) | 0.5 (≈ 0.821 µM) | –
9 | CN(C)c1cc(CN2CC3(CCC3)C2)c(O)c2c1C[C@H]1C[C@H]3[C@H](N(C)C)C(O)=C(C(N)=O)C(=O)[C@@]3(O)C(O)=C1C2=O [Compound 9, (4S,4aS,5aR,12aS)-9-(2-azaspiro[3.3]heptan-2-ylmethyl)-4,7-bis(dimethylamino)-3,10,12,12a-tetrahydroxy-1,1′-dioxo-1,4,4a,5,5a,6,11,12a-octahydrotetracene-2-carboxamide] | 0.5 (≈ 0.882 µM) | 4 (≈ 7.06 µM) | 1 (≈ 1.76 µM) | 1 (≈ 1.76 µM) | 0.5 (≈ 0.882 µM) | 0.5 (≈ 0.882 µM) | – | – | – | – | – | – | – | AUC(0-t) ([11]; iv): 6070 ng·h/mL; Vd ([11]; iv): 4.65 L/kg; clearance ([11]; iv): 13.3 mL/min/kg; half-life ([11]; iv): 5.85 h; AUC(0-t) ([11]; po): 216 ng·h/mL; Cmax ([11]; po): 35.6 ng/mL; Tmax ([11]; po): 1 h; bioavailability ([11]; po): 3.56%
10 | CN(C)c1cc(CN2CC(C)(C)C2)c(O)c2c1C[C@H]1C[C@H]3[C@H](N(C)C)C(O)=C(C(N)=O)C(=O)[C@@]3(O)C(O)=C1C2=O [Compound 1, (4S,4aS,5aR,12aS)-9-((3,3-dimethylazetidin-1-yl)methyl)-4,7-bis(dimethylamino)-3,10,12,12a-tetrahydroxy-1,1′-dioxo-1,4,4a,5,5a,6,11,12a-octahydrotetracene-2-carboxamide] | 1 (≈ 1.8 µM) | 1 (≈ 1.8 µM) | 1 (≈ 1.8 µM) | 2 (≈ 3.61 µM) | 0.5 (≈ 0.901 µM) | 1 (≈ 1.8 µM) | – | – | – | – | – | – | – | –
11 | CN(C)c1cc(CN2CC3C(C2)C3(C)C)c(O)c2c1C[C@H]1C[C@H]3[C@H](N(C)C)C(O)=C(C(N)=O)C(=O)[C@@]3(O)C(O)=C1C2=O (stereo partly drawn) [Compound 27, (4S,4aS,5aR,12aS)-9-((6-dimethyl-3-azabicyclo[3.1.0]hexan-3-yl)methyl)-4,7-bis(dimethylamino)-3,10,12,12a-tetrahydroxy-1,1′-dioxo-1,4,4a,5,5a,6,11,12a-octahydrotetracene-2-carboxamide] | – | – | – | – | – | – | 0.5 (≈ 0.861 µM) | 0.125 (≈ 0.215 µM) | 4 (≈ 6.89 µM) | 0.5 (≈ 0.861 µM) | 2 (≈ 3.44 µM) | 0.125 (≈ 0.215 µM) | 0.125 (≈ 0.215 µM) | –
12 | CN(C)c1cc(CN2CCC3(CC2)CC3)c(O)c2c1C[C@H]1C[C@H]3[C@H](N(C)C)C(O)=C(C(N)=O)C(=O)[C@@]3(O)C(O)=C1C2=O [Compound 20, (4S,4aS,5aR,12aS)-9-(6-azaspiro[2.5]octan-6-ylmethyl)-4,7-bis(dimethylamino)-3,10,12,12a-tetrahydroxy-1,1′-dioxo-1,4,4a,5,5a,6,11,12a-octahydrotetracene-2-carboxamide] | 1 (≈ 1.72 µM) | 1 (≈ 1.72 µM) | 1 (≈ 1.72 µM) | 2 (≈ 3.44 µM) | 0.5 (≈ 0.861 µM) | 0.5 (≈ 0.861 µM) | – | – | – | – | – | – | – | AUC(0-t) ([11]; iv): 11600 ng·h/mL; Vd ([11]; iv): 2.22 L/kg; clearance ([11]; iv): 7.33 mL/min/kg; half-life ([11]; iv): 4.98 h; AUC(0-t) ([11]; po): 605 ng·h/mL; Cmax ([11]; po): 116 ng/mL; Tmax ([11]; po): 2 h; bioavailability ([11]; po): 5.22%

From patent publication US9365499B2, “9-aminomethyl substituted tetracycline compounds” (KBP Biosciences Co., Ltd., priority 2011, dated 2016)
